Data: BindingDB's records for doi:10.1021/jm00045a017 (National Taiwan University, 1994)

Assay: binding affinity against sigma Opioid receptor was measured by using labeled ligand [3H]-SKF- 10,047 (1 nM)
Compound `Oc1cccc2c1O[C@H]1[C@@H](O)CC[C@H]3CN(CC4CC4)CC[C@@]231` [(4aR,7S,7aR,12bS)-3-Cyclopropylmethyl-2,3,4,4a,5,6,7,7a-octahydro-1H-8-oxa-3-aza-benzo[d]fluorene-7,9-diol] has a Ki of 580 nM. `COc1cccc2c1O[C@H]1[C@@H](O)CC[C@H]3CN(CC4CC4)CC[C@@]231` [(4aR,7S,7aR,12bS)-3-Cyclopropylmethyl-9-methoxy-2,3,4,4a,5,6,7,7a-octahydro-1H-8-oxa-3-aza-benzo[d]fluoren-7-ol] showed a Ki of 410 nM. In the case of `O=C1CC[C@H]2CN(CC3CC3)CC[C@@]23c2cccc(O)c2O[C@@H]13` [(4aR,7aR,12bS)-3-Cyclopropylmethyl-9-hydroxy-2,3,4,4a,5,6-hexahydro-1H-8-oxa-3-aza-benzo[d]fluoren-7-one], the Ki is reported as 710 nM. For `COc1cccc2c1O[C@H]1C(=O)CC[C@H]3CN(CC4CC4)CC[C@@]231` [(4aR,7aR,12bS)-3-Cyclopropylmethyl-9-methoxy-2,3,4,4a,5,6-hexahydro-1H-8-oxa-3-aza-benzo[d]fluoren-7-one], the Ki was 440 nM. `CN1CC[C@]23c4cccc(O)c4O[C@H]2C(=O)CC[C@H]3C1` [(4aR,7aR,12bS)-9-Hydroxy-3-methyl-2,3,4,4a,5,6-hexahydro-1H-8-oxa-3-aza-benzo[d]fluoren-7-one] showed a Ki of 2090 nM. Compound `Oc1cccc2c1O[C@H]1[C@H](O)CC[C@@H]3CN(CC4CC4)CC[C@@]231` [(4aS,7R,7aR,12bS)-3-Cyclopropylmethyl-2,3,4,4a,5,6,7,7a-octahydro-1H-8-oxa-3-aza-benzo[d]fluorene-7,9-diol] has a Ki of 300 nM. `O=C1CC[C@@H]2CN(CC3CC3)CC[C@@]23c2cccc(O)c2O[C@@H]13` [(4aS,7aR,12bS)-3-Cyclopropylmethyl-9-hydroxy-2,3,4,4a,5,6-hexahydro-1H-8-oxa-3-aza-benzo[d]fluoren-7-one] gave a Ki of 310 nM. Compound `Oc1cccc2c1O[C@H]1CCC[C@H]3CN(CC4CC4)CC[C@@]231` [(-)-trans-3-Cyclopropylmethyl-2,3,4,4aalpha,5,6,7,7aalpha-octahydro-1H-benzo[4,5]furo[3,2-e]isoquinolin-9-ol] has a Ki of 21 nM.
